# Measured values reported in patent US11000601B2, “Conjugated biological molecules, pharmaceutical compositions and methods” (OBI Pharma, Inc., priority 2016, dated 2021).
# Where “and” joins values, the source holds several entries; their conditions need not be identical. Equal values may be shown once. Square brackets hold non-standard residues; d marks the D form. Peptide text beside a SMILES is read from it. * marks the point of attachment. Dolaproine = CO[C@@H]([C@@H]1CCCN1)[C@@H](C)C(=O)O; Dil = CC[C@H](C)[C@H](NC)[C@@H](CC(=O)O)OC; X1 = C[C@@H](N*)[C@@H](O)c1ccccc1; NMeV = CN[C@H](C(=O)O)C(C)C
# Columns and labels:
# [1] = Body weight, mortality and signs of overt toxicity in MCF-7 implanted female nude (nu/nu) mice; assay type: in vivo, mouse; settings: for Body Weight (g), individual animals No. 1-6: single animal; for Body Weight (g), individual mice: individual mice No. 1-6
# Method: (§1) In a xenograft tumor model of human breast adenocarcinoma, MCF-7 (ATCC HTB-22) cells were subcutaneously (SC) implanted (2.0×10^7 cells in 1:1 matrigel/media mixture at 0.2 mL/mouse) into the right flank of female athymic (nu/nu) nude mice. Supplemental injections of estradiol cyclopentyl propionate (100 μg/mouse) were administered subcutaneously between the scapulae twice weekly, from one week prior to cell implantation to study completion. Tumor-implanted mice were divided into eleven treatment groups, each group containing six animals, and test agent administrations were initiated one day after cell implantation (denoted as Day 1). 3.1 Test Substances and Dosing Pattern
# (§2) Two control groups received intravenous injections of vehicle (25 mM Sodium Citrate, pH 6.5+100 mM NaCl) once weekly for either six weeks (group 1) or two weeks (group 2).
# (§3) Female (nu/nu) nude mice aged 6-7 weeks obtained from BioLasco Taiwan (under Charles River Laboratories Licensee) were used. The animals were housed in individually ventilated cages (IVG, 36 Mini Isolator System). The allocation for 3-5 animals was 27×20×14 in cm. All animals were maintained in a hygienic environment under controlled temperature (20-24° C.) and humidity (30-70%) with 12-hour light/dark cycle. Free access to standard lab diet (Oriental Yeast Co., Ltd., Japan) and autoclaved tap water were granted. All aspects of this work including housing, experimentation, and animal disposal were performed in general accordance with the “Guide for the Care and Use of Laboratory Animals: Eighth Edition” (National Academies Press, Washington, D.C., 2011) in our AAALAC-accredited laboratory animal facility. In addition, the animal care and use protocol was reviewed and approved by the IACUC at Eurofins Panlabs Taiwan, Ltd.
# (§4) The tumor volumes, body weights, mortality, and signs of overt toxicity were monitored and recorded twice weekly for 77 days. Tumor volume (mm^3) was calculated according to the formula for a prolate ellipsoid: length (mm)×[width (mm)]^2×0.5. Tumor growth inhibition was calculated as T/C (treatment/control)×100%. A T/C value≤42% was considered significant anti-tumor activity. Two-way ANOVA followed by Bonferroni test was used to ascertain the statistical significance of groups compared to respective vehicle control (*p<0.05).
# [2] = system: MCF-7 (ATCC HTB-22) human breast adenocarcinoma; test: Xenograft tumor model of human breast adenocarcinoma MCF-7 in nude mice: tumor volume, T/C; assay type: in vivo; settings: for % T/C / Tumor Volume, Mean / Tumor Volume, single mouse (No. 1-6): 0.057 mg/kg × 6, IV, once weekly
# Method: as §1, §2
# Human breast adenocarcinoma tumor cell line, MCF-7 (ATCC HTB-22, breast adenocarcinoma), was provided by the Sponsor. The tumor cells were prepared and cultured by the Sponsor (1×10^8 cells/mL), and 0.2 mL MCF-7 tumor cell inoculum containing 2×10^7 cells (mixture of matrigel and medium; 1:1) was implanted subcutaneously in the right flank of each mouse.
# as §3, §4
smiles,measurement,setting,value
"CC[C@H](C)[C@@H]([C@@H](CC(=O)N1CCC[C@H]1[C@H](OC)[C@@H](C)C(=O)N[C@H](C)[C@@H](O)c1ccccc1)OC)N(C)C(=O)[C@@H](NC(=O)[C@@H](NC)C(C)C)C(C)C [MMAE, monomethyl auristatin E] (H-[NMeV]V[Dil][Dolaproine]-X1)","Body Weight (g), individual animals No. 1-6","[1]; 0.057 mg/kg × 6, IV once weekly, Day 53",26 g (3×) and 28 g and 22 g and 24 g
same,"Body Weight (g), individual animals No. 1-6","[1]; 0.057 mg/kg × 6, IV once weekly, Day 56",24 g and 27 g and 26 g (2×) and 23 g and 25 g
same,"Body Weight (g), individual animals No. 1-6","[1]; 0.057 mg/kg × 6, IV once weekly, Day 60",27 g (3×) and 28 g and 24 g and 26 g
same,"Body Weight (g), individual animals No. 1-6","[1]; 0.057 mg/kg × 6, IV once weekly, Day 63",27 g (2×) and 26 g (2×) and 29 g and 24 g
same,"Body Weight (g), individual animals No. 1-6","[1]; 0.057 mg/kg × 6, IV once weekly, Day 67",27 g (2×) and 28 g (2×) and 26 g and 25 g
same,"Body Weight (g), individual animals No. 1-6","[1]; 0.057 mg/kg × 6, IV once weekly, Day 70",27 g and 28 g (2×) and 25 g (2×) and 26 g
same,"Body Weight (g), Mean","[1]; 0.057 mg/kg × 6, IV once weekly, Day 74, group mean",26.7 g
same,"Body Weight (g), individual animals No. 1-6","[1]; 0.057 mg/kg × 6, IV once weekly, Day 74",27 g (2×) and 29 g and 24 g and 25 g and 28 g
same,"Body Weight (g), individual animals No. 1-6","[1]; 0.057 mg/kg × 6, IV once weekly, Day 77",28 g and 29 g and 23 g and 27 g (2×) and 24 g
same,"Body Weight (g), individual mice","[1]; 0.057 mg/kg × 6 IV once weekly, Day 1",23 g (2×) and 22 g (2×) and 24 g and 21 g
same,"Body Weight (g), Mean","[1]; 0.057 mg/kg × 6 IV once weekly, Day 1, mean of 6 mice",22.5 g
same,"Body Weight (g), individual mice","[1]; 0.057 mg/kg × 6 IV once weekly, Day 5",24 g (3×) and 22 g (3×)
same,"Body Weight (g), Mean","[1]; 0.057 mg/kg × 6 IV once weekly, Day 5, mean of 6 mice",23.0 g
same,"Body Weight (g), individual mice","[1]; 0.057 mg/kg × 6 IV once weekly, Day 8",26 g and 23 g (2×) and 24 g (2×) and 25 g
same,"Body Weight (g), Mean","[1]; 0.057 mg/kg × 6 IV once weekly, Day 8, mean of 6 mice",24.2 g
same,"Body Weight (g), individual mice","[1]; 0.057 mg/kg × 6 IV once weekly, Day 12",26 g and 24 g (2×) and 25 g (3×)
same,"Body Weight (g), individual mice","[1]; 0.057 mg/kg × 6 IV once weekly, Day 15",27 g and 25 g (4×) and 26 g
same,"Body Weight (g), individual mice","[1]; 0.057 mg/kg × 6 IV once weekly, Day 19",26 g and 24 g and 25 g (4×)
same,"Body Weight (g), Mean","[1]; 0.057 mg/kg × 6 IV once weekly, Day 19, mean of 6 mice",25.0 g
same,"Body Weight (g), individual mice","[1]; 0.057 mg/kg × 6 IV once weekly, Day 22",27 g and 25 g (2×) and 24 g and 26 g (2×)
same,"Body Weight (g), individual mice","[1]; 0.057 mg/kg × 6 IV once weekly, Day 26",27 g and 25 g (2×) and 24 g (2×) and 26 g
same,anti-tumor activity (in words),"[2]; 0.057 mg/kg IV once weekly for six weeks, during and for a short time after the dosing phase",modest-to-moderate anti-tumor activity
same,% T/C,[2]; Day 1,101%
same,"Tumor Volume, Mean",[2]; Day 1,161 mm^3
same,"Tumor Volume, single mouse (No. 1-6)",[2]; Day 1,141 mm^3 and 139 mm^3 and 162 mm^3 and 186 mm^3 and 152 mm^3 and 188 mm^3
same,% T/C,[2]; Day 5,97%
same,"Tumor Volume, Mean",[2]; Day 5,119 mm^3
same,"Tumor Volume, single mouse (No. 1-6)",[2]; Day 5,110 mm^3 and 123 mm^3 and 145 mm^3 and 104 mm^3 and 106 mm^3 and 128 mm^3
same,% T/C,[2]; Day 8,96%
same,"Tumor Volume, Mean",[2]; Day 8,132 mm^3
same,"Tumor Volume, single mouse (No. 1-6)",[2]; Day 8,121 mm^3 and 125 mm^3 and 139 mm^3 and 131 mm^3 (2×) and 146 mm^3
same,% T/C,[2]; Day 12,71%
same,"Tumor Volume, Mean",[2]; Day 12,114 mm^3
same,"Tumor Volume, single mouse (No. 1-6)",[2]; Day 12,101 mm^3 and 104 mm^3 and 133 mm^3 and 115 mm^3 and 103 mm^3 and 129 mm^3
same,% T/C,[2]; Day 15,72%
same,"Tumor Volume, Mean",[2]; Day 15,116 mm^3
same,"Tumor Volume, single mouse (No. 1-6)",[2]; Day 15,102 mm^3 and 101 mm^3 and 127 mm^3 and 105 mm^3 and 137 mm^3 and 121 mm^3
same,% T/C,[2]; Day 19,64%
same,"Tumor Volume, Mean",[2]; Day 19,130 mm^3
same,"Tumor Volume, single mouse (No. 1-6)",[2]; Day 19,137 mm^3 and 113 mm^3 and 125 mm^3 and 121 mm^3 and 148 mm^3 and 135 mm^3
same,% T/C,[2]; Day 22,61%
same,"Tumor Volume, Mean",[2]; Day 22,140 mm^3
same,"Tumor Volume, single mouse (No. 1-6)",[2]; Day 22,123 mm^3 and 137 mm^3 (2×) and 138 mm^3 and 164 mm^3 and 143 mm^3
same,% T/C,[2]; Day 26,54%
same,"Tumor Volume, Mean",[2]; Day 26,143 mm^3
